From US10744150B2, “Cyclic dinucleotides as anticancer agents” (BRISTOL-MYERS SQUIBB COMPANY, priority 2017, dated 2020)
Where two headings read alike, the source gives them in different places.

Key:
[1] = molecular target: T1, STING AQ: His-TVMV-S-hSTING(155-341)-G230A-R293Q (Homo sapiens, UniProt Q86WV6, G230A/H232R/R293Q); assay: STING HTRF binding assay (time resolved FRET competition), STING AQ; details: 20 nM His-tagged STING cytoplasmic domain, 40 nM fluorescein-labeled cGAMP analog probe, one hour; read-out: HTRF Binding Assays IC50 STING AQ
T1 construct: His-TVMV-S-hSTING(155-341)-G230A-R293Q
Description: (§1) A time resolved FRET-based competition binding assay was used to assess test article binding to STING WT and STING AQ. His-tagged STING cytoplasmic domain (WT or AQ) at a concentration of 20 nM was incubated with 2.5 nM Tb-labeled anti-His antibody, test compound, and fluorescein-labeled cGAMP analog probe (BioLog cat. no. C195) at a concentration of 200 nM (STING WT) or 40 nM (STING AQ) in PBS containing 0.005% Tween-20 and 0.1% BSA for one hour. Fluorescence at 495 nm and 520 nm was measured using an EnVision microplate reader to quantify FRET between Tb-labeled anti-His antibody and fluorescein-labeled probe. Background was defined as the signal obtained in the absence of STING protein, and background subtracted FRET ratios were normalized to the maximum signal obtained in the absence of test compound. These values were converted to a percent inhibition. Percent inhibition was determined for test compounds at 11 concentrations. The IC50, defined as the concentration of competing test compound needed to reduce specific binding of the probe by 50%, was calculated using the 4 parameter logistic equation to fit the data

IRF3 = assay: STING THP1 reporter assay, IRF pathway (secreted luciferase Lucia, QUANTI-Luc); assay type: cell-based; details: THP1-Dual cells, 10% human plasma, 100% activation = 100 μM cGAMP, luciferase readout, read-out: THP1 Reporter Assays EC50 IRF3
Excerpt: (§2) THP1-Dual™ cells were derived from the human THP-1 monocyte cell line by stable integration of two inducible reporter constructs. To this end, THP1-Dual™ cells allow the simultaneous study of the NF-κB pathway, by monitoring the activity of SEAP, and the IRF pathway by assessing the activity of a secreted luciferase (Lucia). Both reporter proteins are readily measurable in the cell culture supernatant when using QUANTI-Blue™, a SEAP detection reagent, and QUANTI-Luc™, a luciferase detection reagent.
(§3) THP1-Dual™ cells induce the activation of NF-κB in response to STING agonists. They also trigger the IRF pathway upon stimulation with STING agonists, such as cGAMP. Here, the THP-1-Dual cells were used to assess STING binders for function on the cellular level.
(§4) Serial dilutions of compounds in DMSO were added to low volume 384 well plates at 100 nl/well using an ECHO acoustic dispenser (Labcyte, model 550) to achieve final starting concentration of 100 μM in cell suspension. THP-1 Dual™ STING reporter cells (Invivogen, Dual cells cat # THPD-nfis) were added to the plates with compounds at 15,000 cells in 10 μL per well in RPMI media (Gibco, cat #11875) containing 10% human plasma in a low volume 384-well black wall clear bottom tissue culture plate (Corning, cat #3542) for SEAP assay and low volume solid white plate (Corning, cat #3826) for luciferase assay. One column of the plate was reserved for treatment with cGAMP at 100 μM for 100% activation calculation and one column for no treatment (DMSO only) for baseline activation. Plates were then incubated in 37° C. incubator at 5% CO2 for 20 hours.
(§5) In the SEAP assay, 5 μl of 2× QuantiBlue (Invivogen, cat # Rep-qb2) is added to 384 well black plates seeded with THP1 cells and incubated at 37° C. for 2 hours. Plates were read on the Envision (Perkin Elmer) at 620 nm wavelength (OD620). In the luciferase assay, 5 μl of Quantiluc (Invivogen, Rep-qlc2) is added to white 384 well plates seeded with THP1 cells and read at 5 minutes on the Envision (Perkin Elmer) using a luminescence protocol (RLU). For both cell lines, 100% activation was determined by value (RLU) of THP-1 Dual STING cells stimulated with 100 μM cGAMP (Invivogen, cat # TLRL-NACGA23-5).

NFkB = assay: STING THP1 reporter assay, NF-κB pathway (SEAP, QUANTI-Blue); assay type: cell-based; details: THP1-Dual cells, 10% human plasma, 100% activation = 100 μM cGAMP
Excerpt: as §2, §3, §4, §5

[2] = molecular target: T2, STING WT: His-TVMV-S-hSTING(155-341)-H232R (Homo sapiens, UniProt Q86WV6, H232R); assay: STING HTRF binding assay (time resolved FRET competition), STING WT; details: 20 nM His-tagged STING cytoplasmic domain, 200 nM fluorescein-labeled cGAMP analog probe, one hour; read-out: HTRF Binding Assays IC50 STING WT
T2 construct: His-TVMV-S-hSTING(155-341)-H232R
Description: as §1

[3] = 20 hours, SEAP readout OD620, read-out: THP1 Reporter Assays EC50 NFkB
[4] = Homo sapiens, THP-1, 20 h, SEAP readout OD620, read-out: THP1 Reporter Assays EC50 NFkB

T2 sequence (Q86WV6 with tags, fused parts or gaps H232R): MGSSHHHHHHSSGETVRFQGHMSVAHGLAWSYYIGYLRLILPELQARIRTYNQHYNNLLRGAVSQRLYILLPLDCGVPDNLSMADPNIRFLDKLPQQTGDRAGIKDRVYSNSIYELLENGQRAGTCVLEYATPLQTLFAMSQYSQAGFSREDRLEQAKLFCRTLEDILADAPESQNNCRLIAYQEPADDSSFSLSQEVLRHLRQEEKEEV
T1 sequence (Q86WV6 with tags, fused parts or gaps G230A/H232R/R293Q): as the sequence (Q86WV6 with tags, fused parts or gaps H232R) above, with G99A, R162Q counted along it

Compound | IC50 [1] [µM] | EC50 (IRF3; 20 hours) [µM] | EC50 (NFkB; [3]) [µM] | IC50 [2] [µM] | EC50 (IRF3; Homo sapiens, THP-1, 20 h) [µM] | EC50 (NFkB; [4]) [µM]
NC(=O)c1cccc2c1nnn2[C@@H]1O[C@@H]2COP(O)(=S)OC[C@@H]3[C@@H](COP(O)(=S)O[C@H]2[C@H]1F)C[C@H]3n1cnc2c(N)ncnc21 (single isomer, unassigned) [Example 12-3] | 64.4 | > 100 | > 100 | > 100 | – | –
NC(=O)c1cccc2c1nnn2[C@@H]1O[C@@H]2COP(O)(=S)OC[C@@H]3[C@@H](COP(O)(=S)O[C@@H]1[C@@H]2F)C[C@H]3n1cnc2c(N)ncnc21 (single isomer, unassigned) [Example 11-4] | 23.1 | > 100 | > 100 | 66.2 | – | –
Nc1ncnc2c1ncn2[C@@H]1C[C@@H]2COP(O)(=S)O[C@@H]3[C@H](O)[C@@H](COP(O)(=S)OC[C@H]21)O[C@H]3n1cnc2c(O)nc3nccn3c21 (single isomer, unassigned) [Example 15-1] | 4.4 | – | – | 33.5 | > 100 | > 100
NC(=O)c1cccc2c1nnn2[C@@H]1O[C@@H]2COP(O)(=S)OC[C@@H]3[C@@H](COP(O)(=S)O[C@H]2[C@H]1F)C[C@H]3n1cnc2c(N)ncnc21 (single isomer, unassigned) [Example 12-4] | 0.4 | > 100 | > 100 | 22 | – | –
Nc1ncnc2c1ncn2[C@@H]1C[C@@H]2COP(O)(=S)O[C@H]3C[C@H](n4ccc5c(Cl)ncnc54)O[C@@H]3COP(=O)(S)OC[C@H]21 (single isomer, unassigned) [Example 6-4] | 14.8 | > 100 | – | > 100 | – | –
Nc1ncnc2c1ncn2[C@@H]1O[C@@H]2COP(O)(=S)OC[C@@H]3[C@@H](COP(O)(=S)O[C@H]2[C@H]1F)C[C@H]3n1cnc2c(=O)[nH]cnc21 (single isomer, unassigned) [Example 5-4] | 0.01 | 12 | 91 | 0.12 | – | –
O=c1[nH]c2nccn2c2c1ncn2[C@@H]1O[C@@H]2COP(=O)(S)OC[C@@H]3[C@@H](COP(=O)(S)O[C@@H]1[C@@H]2O)C[C@H]3n1cnc2c(O)ncnc21 (single isomer, unassigned) [Example 14-3] | 1.7 | > 100 | > 100 | 14.3 | – | –
Nc1ncnc2c1ncn2[C@@H]1C[C@@H]2COP(O)(=S)O[C@H]3[C@H](F)[C@H](n4cnc5c(N)ncnc54)O[C@@H]3COP(O)(=S)OC[C@H]21 (single isomer, unassigned) [Example 17-1] | > 100 | – | 2 | > 100 | > 100 | –
Nc1ncnc2c1ccn2[C@@H]1O[C@@H]2COP(O)(=S)OC[C@@H]3[C@@H](COP(O)(=S)O[C@H]2[C@@H]1F)C[C@H]3n1cnc2c(N)ncnc21 (single isomer, unassigned) [Example 8-4] | 15.8 | > 100 | > 100 | > 100 | – | –
Nc1ncnc2c1ncn2[C@@H]1C[C@@H]2COP(O)(=S)O[C@@H]3[C@H](O)[C@@H](COP(O)(=S)OC[C@H]21)O[C@H]3n1cnc2c(O)nc3nccn3c21 (single isomer, unassigned) [Example 15-4] | 0.47 | > 100 | > 100 | 3.9 | – | –
Nc1nc2c(ncn2[C@@H]2C[C@@H]3COP(O)(=S)O[C@H]4[C@@H](F)[C@H](n5cnc6c(N)ncnc65)O[C@@H]4COP(O)(=S)OC[C@H]32)c(=O)[nH]1 (single isomer, unassigned) [Example 18-3] | 0.02 | > 100 | > 100 | 0.52 | – | –
O=c1[nH]c2nccn2c2c1ncn2[C@@H]1O[C@@H]2COP(=O)(S)OC[C@@H]3[C@@H](COP(=O)(S)O[C@@H]1[C@@H]2O)C[C@H]3n1cnc2c(O)ncnc21 (single isomer, unassigned) [Example 14-4] | 0.92 | > 100 | > 100 | 4.3 | – | –
Nc1nc2c(ncn2[C@@H]2C[C@@H]3COP(O)(=S)O[C@H]4[C@@H](F)[C@H](n5cnc6c(N)ncnc65)O[C@@H]4COP(O)(=S)OC[C@H]32)c(=O)[nH]1 (single isomer, unassigned) [Example 18-1] | 0.002 | 0.6 | 2.6 | 0.004 | – | –
Nc1ncnc2c1ncn2[C@@H]1C[C@@H]2COP(O)(=S)O[C@@H]3[C@H](O)[C@@H](COP(O)(=S)OC[C@H]21)O[C@H]3n1cnc2c(N)ncnc21 (single isomer, unassigned) [Example 4-2] | 0.05 | 72 | 87 | 3.7 | – | –
NC(=O)c1cccc2c1nnn2[C@@H]1C[C@@H]2COP(O)(=S)O[C@H]3[C@@H](F)[C@H](n4cnc5c(N)ncnc54)O[C@@H]3COP(O)(=S)OC[C@H]21 (single isomer, unassigned) [Example 13-1] | 85.1 | – | – | > 100 | > 100 | > 100
NC(=O)c1cccc2c1nnn2[C@@H]1C[C@@H]2COP(O)(=S)O[C@H]3[C@@H](F)[C@H](n4cnc5c(N)ncnc54)O[C@@H]3COP(O)(=S)OC[C@H]21 (single isomer, unassigned) [Example 13-3] | 3.8 | > 100 | > 100 | > 100 | – | –
Nc1ncnc2c1ncn2[C@@H]1C[C@@H]2COP(O)(=S)O[C@H]3C[C@H](n4ccc5c(Cl)ncnc54)O[C@@H]3COP(=O)(S)OC[C@H]21 (single isomer, unassigned) [Example 6-3] | 31.9 | > 100 | – | > 100 | – | –
Nc1ncnc2c1ncn2[C@@H]1C[C@@H]2COP(O)(=S)O[C@H]3C[C@H](n4ccc5c(Cl)ncnc54)O[C@@H]3COP(=O)(S)OC[C@H]21 (single isomer, unassigned) [Example 6-2] | 82.6 | > 100 | – | > 100 | – | –
Nc1ncnc2c1ncn2[C@@H]1C[C@@H]2COP(O)(=S)O[C@H]3[C@H](F)[C@H](n4ccc5c(Cl)ncnc54)O[C@@H]3COP(O)(=S)OC[C@H]21 (single isomer, unassigned) [Example 7-2] | – | > 100 | > 100 | > 100 | – | –
Nc1ncnc2c1ccn2[C@@H]1O[C@@H]2COP(O)(=S)OC[C@@H]3[C@@H](COP(O)(=S)O[C@H]2[C@@H]1F)C[C@H]3n1cnc2c(N)ncnc21 (single isomer, unassigned) [Example 8-1] | – | – | 23 | > 100 | > 100 | –
